Test results as given in ChEMBL document CHEMBL5608204, “Disulfide bond replacement with non-reducible side chain to tail macrolactamization for the development of potent and selective CXCR4 peptide antagonists endowed with flanking binding sites” (Eur J Med Chem, 2024).
One block for each molecule: values may come before it. The source made the active and inactive calls. No cut-off for these calls is given here.

Columns and labels:
[1] = target: T1, C-X-C chemokine receptor type 4 (Homo sapiens, UniProt P61073); assay: Antagonist activity at CXCR4 in human CCRF-CEM cells assessed as inhibition of anti-CXCR4 binding preincubated with compound for 45 mins followed by anti-CXCR4 PE antibody addition and measured after 30 mins by fluorescence based competitive binding assay; type: functional, cell-based
T1 sequence (P61073 whole entry): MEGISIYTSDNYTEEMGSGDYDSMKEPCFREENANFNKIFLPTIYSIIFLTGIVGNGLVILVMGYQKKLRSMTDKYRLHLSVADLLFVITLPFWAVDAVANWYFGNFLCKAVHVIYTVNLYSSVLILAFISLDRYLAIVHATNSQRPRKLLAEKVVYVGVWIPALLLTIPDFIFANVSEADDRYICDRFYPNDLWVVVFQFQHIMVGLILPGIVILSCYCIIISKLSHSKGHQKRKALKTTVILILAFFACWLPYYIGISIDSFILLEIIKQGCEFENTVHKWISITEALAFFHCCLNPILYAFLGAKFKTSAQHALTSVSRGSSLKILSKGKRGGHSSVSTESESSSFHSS

[2] = target: T1, C-X-C chemokine receptor type 4; assay: Displacement of 125I-CXCL12 from CXCR4 in human CCRF-CEM cells measured after 1 hr by competitive binding assay; type: cell-based
[3] = Stability of the compound assessed as parent compound remaining in PBS buffer at pH 7.4 at 10 uM measured after 1 hr in presence of glutathione by RP-HPLC analysis; type: physicochemical; conditions: PBS buffer with glutathione, read-out: Stability
[4] = Stability of the compound assessed as parent compound remaining in PBS buffer at pH 7.4 at 10 uM measured after 8 hr in presence of glutathione by RP-HPLC analysis; type: physicochemical; conditions: PBS buffer with glutathione, read-out: Stability
[5] = target: T2, Atypical chemokine receptor 3 (Homo sapiens, UniProt P25106); assay: Binding affinity to CXCR7 (unknown origin) overexpressing human MCF7 cells at upto 10 uM by flow cytometry analysis; type: cell-based
T2 sequence (P25106 whole entry): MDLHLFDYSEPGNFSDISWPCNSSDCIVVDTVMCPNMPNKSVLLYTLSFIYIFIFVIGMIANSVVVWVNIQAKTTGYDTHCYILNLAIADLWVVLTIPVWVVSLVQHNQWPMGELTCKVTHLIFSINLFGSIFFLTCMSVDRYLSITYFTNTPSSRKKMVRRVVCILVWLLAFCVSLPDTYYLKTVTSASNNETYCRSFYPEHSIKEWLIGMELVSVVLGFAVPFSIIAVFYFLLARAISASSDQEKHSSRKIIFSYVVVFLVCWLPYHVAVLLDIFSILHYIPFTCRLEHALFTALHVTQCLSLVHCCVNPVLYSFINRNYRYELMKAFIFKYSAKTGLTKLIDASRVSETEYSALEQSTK

CCRF-CEM [6] = assay: Inhibition of CXCL12-induced cell migration in human CCRF-CEM cells at 0.01 to 10 uM measured after 6 hrs by DAPI staining based analysis; type: functional; conditions: dose 0.01-10 µM
[7] = target: T1, C-X-C chemokine receptor type 4; assay: Agonist activity at CXCR4 (unknown origin) transfected with CHO cells cotransfected with CXCR4-GFP assessed as induction of CXCR4 internalization at 0.1 to 1 uM incubated for 45 mins by DAPI staining based microscopy analysis; type: functional, cell-based; conditions: dose 0.1-1 µM
[8] = target: T1, C-X-C chemokine receptor type 4; assay: Antagonist activity at CXCR4 in human CEM cells assessed as inhibition of CXCL12-induced CXCR4 internalization at 0.1 to 1 uM preincubated for 45 mins followed by CXCL12 stimulation and measured after 30 mins by flow cytometry analysis; type: functional, cell-based; conditions: filed as antagonist, dose 0.1-1 µM, time 75.0 min
[9] = target: T1, C-X-C chemokine receptor type 4; assay: Agonist activity at CXCR4 in human CEM cells assessed as induction of CXCR4 internalization at 0.1 to 1 uM incubated for 45 mins by flow cytometry analysis; type: functional, cell-based; conditions: dose 0.1-1 µM
[10] = target: T2, Atypical chemokine receptor 3; assay: Binding affinity to CXCR7 (unknown origin) overexpressing human MCF7 cells by flow cytometry analysis; type: cell-based
[11] = target: T2, Atypical chemokine receptor 3; assay: Inhibition of CXCR7 (unknown origin) overexpressing human MCF7 cells at upto 10 uM by flow cytometry analysis relative to control; type: cell-based
CCRF-CEM [12] = assay: Inhibition of CXCL12-induced cell migration in human CCRF-CEM cells measured after 6 hrs by DAPI staining based analysis; type: functional; conditions: dose 0.01-10 µM
[13] = target: T1, C-X-C chemokine receptor type 4; assay: Antagonist activity at CXCR4 (unknown origin) transfected with CHO cells cotransfected with CXCR4-GFP assessed as inhibition of CXCL12 induced CXCR4 internalization at upto 1 uM preincubated for 45 mins followed by CXCL12 stimulation and measured after 30 to 90 mins by DAPI staining based microscopy analysis; type: functional, cell-based; conditions: time 75-135 min
[14] = Stability of the compound assessed as parent compound remaining in PBS buffer at pH 7.4 at 10 uM measured upto 8 hr in presence of glutathione by RP-HPLC analysis; type: physicochemical; conditions: pH 7.4, 8 h

IC50 ([1]; ccrf-cem): 344 nM
Structure (SMILES): CC(=O)N[C@@H](CCCNC(=N)N)C(=O)N[C@@H](C)C(=O)N[C@@H]1CNC(=O)[C@H](Cc2ccccc2)NC(=O)[C@H](Cc2c[nH]cn2)NC(=O)[C@H](Cc2ccc3ccccc3c2)NC(=O)[C@H](CCCNC(=N)N)NC1=O

IC50 ([2]; ccrf-cem): 30 nM
Structure (SMILES): CC(=O)N[C@@H](CCCNC(=N)N)C(=O)N[C@@H](C)C(=O)N[C@@H]1CCn2nncc2C[C@@H](C(=O)O)NC(=O)[C@H](Cc2c[nH]cn2)NC(=O)[C@H](Cc2ccc3ccccc3c2)NC(=O)[C@H](CCCNC(=N)N)NC1=O

IC50 [1]: 1 nM
IC50 [2]: 4.7 nM
remaining at 1 h, 10 µM [3]: ~88%
remaining at 8 h, 10 µM [4]: ~52%
Structure (SMILES): CC(=O)N[C@@H](CCCNC(=N)N)C(=O)N[C@@H](C)C(=O)N[C@@H]1CSSC(C)(C)[C@@H](C(=O)O)NC(=O)[C@H](Cc2cnc[nH]2)NC(=O)[C@H](Cc2ccc3ccccc3c2)NC(=O)[C@H](CCCNC(=N)N)NC1=O

IC50 ([1]; ccrf-cem): 960 nM
Structure (SMILES): CC(=O)N[C@@H](CCCNC(=N)N)C(=O)N[C@@H](C)C(=O)N[C@@H]1CCCNC(=O)[C@H](CC(=O)O)NC(=O)[C@H](Cc2c[nH]cn2)NC(=O)[C@H](Cc2ccc3ccccc3c2)NC(=O)[C@H](CCCNC(=N)N)NC1=O

IC50 ([2]; ccrf-cem): 36 nM
Structure (SMILES): CC(=O)N[C@@H](CCCNC(=N)N)C(=O)N[C@@H](C)C(=O)N[C@@H]1Cn2cc(nn2)C[C@@H](C(=O)O)NC(=O)[C@H](Cc2c[nH]cn2)NC(=O)[C@H](Cc2ccc3ccccc3c2)NC(=O)[C@H](CCCNC(=N)N)NC1=O

IC50 [1]: > 10000 nM
Structure (SMILES): CC(=O)N[C@@H](CCCNC(=N)N)C(=O)N[C@@H](C)C(=O)N[C@@H]1CNC(=O)[C@H](CCC(=O)O)NC(=O)[C@H](Cc2c[nH]cn2)NC(=O)[C@H](Cc2ccc3ccccc3c2)NC(=O)[C@H](CCCNC(=N)N)NC1=O

IC50 [1]: 187 nM
Structure (SMILES): CC(=O)N[C@@H](CCCNC(=N)N)C(=O)N[C@@H](C)C(=O)N[C@H]1CNC(=O)[C@@H](CC(=O)O)NC(=O)[C@H](Cc2c[nH]cn2)NC(=O)[C@H](Cc2ccc3ccccc3c2)NC(=O)[C@H](CCCNC(=N)N)NC1=O

IC50 [1]: 100 nM
Structure (SMILES): CC(=O)N[C@@H](CCCNC(=N)N)C(=O)N[C@@H](C)C(=O)N[C@@H]1CNC(=O)[C@@H](CC(=O)O)NC(=O)[C@H](Cc2c[nH]cn2)NC(=O)[C@H](Cc2ccc3ccccc3c2)NC(=O)[C@H](CCCNC(=N)N)NC1=O

IC50 ([1]; ccrf-cem): > 10000 nM
Structure (SMILES): CC(=O)N[C@@H](CCCNC(=N)N)C(=O)N[C@@H](C)C(=O)N[C@@H]1CCCNC(=O)[C@H](CCC(=O)O)NC(=O)[C@H](Cc2c[nH]cn2)NC(=O)[C@H](Cc2ccc3ccccc3c2)NC(=O)[C@H](CCCNC(=N)N)NC1=O

Activity [5]: inactive
Activity [7]: inactive
Activity [8]: Active
Activity [9]: inactive
Structure (SMILES): CC(=O)N[C@@H](CCCNC(=N)N)C(=O)N[C@@H](C)C(=O)N[C@@H]1CSSC(C)(C)[C@H](C(=O)O)NC(=O)[C@H](Cc2c[nH]cn2)NC(=O)[C@H](Cc2ccc3ccccc3c2)NC(=O)[C@H](CCCNC(=N)N)NC1=O
inhibition (CCRF-CEM [6]): Active

IC50 ([1]; ccrf-cem): 243 nM
Structure (SMILES): CC(=O)N[C@@H](CCCNC(=N)N)C(=O)N[C@@H](C)C(=O)N[C@@H]1CNC(=O)[C@H](CCC(N)=O)NC(=O)[C@H](Cc2c[nH]cn2)NC(=O)[C@H](Cc2ccc3ccccc3c2)NC(=O)[C@H](CCCNC(=N)N)NC1=O

IC50 ([1]; ccrf-cem): 200 nM
Structure (SMILES): CC(=O)N[C@@H](CCCNC(=N)N)C(=O)N[C@@H](C)C(=O)N[C@@H]1CCNC(=O)[C@H](CC(=O)O)NC(=O)[C@H](Cc2c[nH]cn2)NC(=O)[C@H](Cc2ccc3ccccc3c2)NC(=O)[C@H](CCCNC(=N)N)NC1=O

IC50 ([1]; ccrf-cem): 780 nM
Structure (SMILES): CC(=O)N[C@@H](CCCNC(=N)N)C(=O)N[C@@H](C)C(=O)N[C@@H]1CCNC(=O)[C@H](CCC(=O)O)NC(=O)[C@H](Cc2c[nH]cn2)NC(=O)[C@H](Cc2ccc3ccccc3c2)NC(=O)[C@H](CCCNC(=N)N)NC1=O

IC50 ([1]; ccrf-cem): 113 nM
Structure (SMILES): CC(=O)N[C@@H](CCCNC(=N)N)C(=O)N[C@@H](C)C(=O)N[C@@H]1CNC(=O)[C@H](CCC(C)C)NC(=O)[C@H](Cc2c[nH]cn2)NC(=O)[C@H](Cc2ccc3ccccc3c2)NC(=O)[C@H](CCCNC(=N)N)NC1=O

IC50 [1]: 50 nM
IC50 [2]: 48 nM
IC50 [10]: > 10000 nM
inhibition [11]: 37%
Activity [7]: inactive
Activity [13]: inactive
Activity [9]: inactive
Stability [14]: Stable
Structure (SMILES): CC(=O)N[C@@H](CCCNC(=N)N)C(=O)N[C@@H](C)C(=O)N[C@H]1CNC(=O)[C@@H](CCC(=O)O)NC(=O)[C@H](Cc2c[nH]cn2)NC(=O)[C@H](Cc2ccc3ccccc3c2)NC(=O)[C@H](CCCNC(=N)N)NC1=O
inhibition (CCRF-CEM [12]): Dose-Dependent Effect

IC50 ([1]; ccrf-cem): > 10000 nM
Structure (SMILES): CC(=O)N[C@@H](CCCNC(=N)N)C(=O)N[C@@H](C)C(=O)N[C@@H]1CCCCNC(=O)[C@H](CCC(=O)O)NC(=O)[C@H](Cc2c[nH]cn2)NC(=O)[C@H](Cc2ccc3ccccc3c2)NC(=O)[C@H](CCCNC(=N)N)NC1=O

IC50 ([1]; ccrf-cem): 1710 nM
Structure (SMILES): CC(=O)N[C@@H](CCCNC(=N)N)C(=O)N[C@@H](C)C(=O)N[C@@H]1CCCCNC(=O)[C@H](CC(=O)O)NC(=O)[C@H](Cc2c[nH]cn2)NC(=O)[C@H](Cc2ccc3ccccc3c2)NC(=O)[C@H](CCCNC(=N)N)NC1=O
